Experimental data reported in patent US9682025B2, “Combination of active agents for oral administration for improving the quality of nails” (NUTRICOS TECHNOLOGIES, priority 2013, dated 2017).

System: metalloprotease 9 (MMP-9)
Assay: Basal synthesis/release of MMP-9 by normal human epidermal keratinocytes (ELISA of culture supernatants)
Assay type: cell-based
Settings: NHEK; for % of basal synthesis/release of MMP-9 by keratinocytes: 24 hours incubation; for effect on the basal level of synthesis and/or release of MMP-9 (in words): doses of Table I
Method: This test was performed on cells cultured at 37° C., 5% CO2. The culture medium is Keratinocyte-SFM supplemented with epidermal growth factor (EGF) at 0.25 ng/ml, pituitary extract (PE) at 25 μg/ml and gentamicin at 25 μg/ml. […] At the end of this incubation, the culture supernatants were collected and stored so as to assay the amounts of MMP-9 secreted using the ELISA R&D Systems assay kit of reference DY911. The inter-group comparisons were performed using the unpaired bilateral Student's t-test.

SMILES | % of basal synthesis/release of MMP-9 by keratinocytes (cysteine 1.2 μg/ml) | % of basal synthesis/release of MMP-9 by keratinocytes (petroselinic acid 0.1 μM) | effect on the basal level of synthesis and/or release of MMP-9 (in words) | % of basal synthesis/release of MMP-9 by keratinocytes (taurine 1.2 μg/ml)
N[C@@H](CS)C(=O)O [Cysteine] | −12% |  |  | 
CCCCCCCCCCC/C=C\CCCCC(=O)O [Petroselinic acid, C18 delta-6-cis-octadecenoic acid] |  | −12% | no inhibitory activity | 
NCCS(=O)(=O)O [Taurine] |  |  | reverse and moderate tendency | +11%
